# Laboratory results as given in patent publication US12065445B2, “CDK2 inhibitors and methods of using the same” (Cedilla Therapeutics, Inc., priority 2021, dated 2024).
# Tested on: Kuramochi cells labeled with mApple-H2B
# Assay: IncuCyte Cell Proliferation Assay
# Format: cell-based
# Conditions: 72 h
# Description: IncuCyte® assay was used to measure the effect of disclosed compounds on cell proliferation. Fluorescent microscopy images of cells were taken immediately after compound treatment and 72 hours later. Image analysis software was used to obtain cell counts as a function of compound concentration. Kuramochi cells labeled with mApple-H2B were seeded on 384-well assay-ready plates. Plates were placed in an IncuCyte® (Sartorius) and scanned at 0 and 72 hours. IncuCyte® software was used to count the number of fluorescent nuclei in each well. The fold change in cell count from 0 to 72 hours in wells treated with increasing compounds concentrations (10 pts, ½ log dilution, 20 μM top concentration) was normalized to DMSO control wells. The normalized cell counts were fit with dose response curves and a […] was calculated.
row,SMILES,IC50 [µM]
1,"CNC(=O)[C@@H](NC(=O)C1(C)CN(C(=O)c2cnn(Cc3ccccc3)c2)CC12CN(C(=O)[C@H]1CC1(C)C)C2)[C@@H](C)OCc1ccccc1 (stereo partly drawn) [I-498, 6-(1-benzyl-1H-pyrazole-4-carbonyl)-N-((2S,3R)-3-(benzyloxy)-1-(methylamino)-1-oxobutan-2-yl)-2-((S)-2,2-dimethylcyclopropane-1-carbonyl)-8-methyl-2,6-diazaspiro[3.4]octane-8-carboxamide]",> 20
2,CNC(=O)[C@@H](NC(=O)[C@@H]1CN(C(=O)c2cnn(Cc3ccccc3)c2)CC12CN(C(=O)[C@H]1CC1(C)C)C2)C1(OCC2CCCCC2)CC1 [I-396],0.5 to 5
3,CNC(=O)C(NC(=O)[C@@H]1CN(C(=O)c2cncs2)CC12CN(C(=O)C(C)(C)C1CC1)C2)c1cccc(C2CCOCC2)n1 (some centres unmarked) [I-338],> 20
4,CNC(=O)C(NC(=O)[C@@H]1CN(C(=O)c2cnn(Cc3ccccc3)c2)CC12CN(C(=O)[C@H]1CC1(C)C)C2)c1cccc(C2CCCCC2)n1 (some centres unmarked) [I-391],0.5 to 5
5,CC(C)(O)C(NC(=O)[C@@H]1CN(C(=O)c2cnco2)CC12CN(C(=O)[C@H]1CC1(C)C)C2)c1cccc(C2CCOCC2)n1 (some centres unmarked) [I-436],> 20
6,C[C@@H](OCC12CCC(CC1)OC2)[C@H](NC(=O)[C@@H]1CN(C(=O)c2cncs2)CC12CN(C(=O)[C@H]1CC1(C)C)C2)C(=O)N1CCC(C)(C)CC1 [I-452],≤ 0.5
7,C[C@@H](OCC1CCCCC1)[C@H](NC(=O)[C@@H]1CN(C(=O)c2cnn(Cc3ccccc3)c2)CC12CN(C(=O)[C@H]1CC1(C)C)C2)C(=O)N1CCC(c2nccs2)CC1 [I-445],≤ 0.5
8,COC[C@H]1CCCN(C(=O)[C@@H](NC(=O)[C@@H]2CN(C(=O)c3cncs3)CC23CN(C(=O)[C@H]2CC2(C)C)C3)[C@@H](C)OCc2ccc(OC(F)(F)F)cc2)C1 [I-320],0.5 to 5
9,COC[C@H]1CCCN(C(=O)[C@@H](NC(=O)[C@@H]2CN(C(=O)c3cncs3)CC23CN(C(=O)C(C)(C)C2CC2)C3)[C@@H](C)OCC2CCCCC2)C1 [I-389],0.5 to 5
10,C[C@@H](OCC1CCC(F)(F)CC1)[C@H](NC(=O)[C@@H]1CN(C(=O)c2cncs2)CC12CN(C(=O)[C@H]1CC1(C)C)C2)C(=O)N1CCC2(CC1)COC2 [I-335],0.5 to 5
11,CC1(C)C[C@@H]1C(=O)N1CC2(CN(C(=O)c3cncs3)C[C@H]2C(=O)NC(CO)c2cccc(C3CCC(F)(F)CC3)n2)C1 (some centres unmarked) [I-419],> 20
12,C[C@@H](OCC12CCC(CC1)OC2)[C@H](NC(=O)[C@@H]1CN(C(=O)c2cncs2)CC12CN(C(=O)[C@H]1CC1(C)C)C2)C(=O)N1CCCC2(COC2)C1 [I-453],5 to 20
13,"Cc1ccc(CNC(=O)[C@@H]2CN(C(=O)c3cnn(Cc4ccccc4)c3)CC23CN(C(=O)C(C)(C)C2CC2)C3)nn1 [I-387, (S)-6-(1-benzyl-1H-pyrazole-4-carbonyl)-2-(2-cyclopropyl-2-methylpropanoyl)-N-((6-methylpyridazin-3-yl)methyl)-2,6-diazaspiro[3.4]octane-8-carboxamide]",> 20
14,Cc1ccc(CNC(=O)[C@@H]2CN(C(=O)c3cnc(Cc4ccccc4)s3)CC23CN(C(=O)[C@H]2CC2(C)C)C3)nn1 [I-405],> 20
15,CC1(C)C[C@@H]1C(=O)N1CC2(CN(C(=O)c3cncs3)C[C@H]2C(=O)NC(c2cccc(C3CCCCC3)n2)C2CCCO2)C1 (some centres unmarked) [I-495],0.5 to 5
16,C[C@@H](OCc1ccc(C(F)(F)F)cc1)[C@H](NC(=O)[C@@H]1CN(C(=O)c2cncs2)CC12CN(C(=O)[C@H]1CC1(C)C)C2)C(=O)N1C2CCC1COC2 [I-470],0.5 to 5
17,C[C@@H](OCC12CCC(CC1)OC2)[C@H](NC(=O)[C@@H]1CN(C(=O)c2sc(Cl)nc2Cl)CC12CN(C(=O)C(C)(C)C1CC1)C2)C(C)(C)O [I-471],> 20
18,C[C@@H](OCC1CCCCC1)[C@@H](COC1CCCNC1)NC(=O)[C@@H]1CN(C(=O)c2cncs2)CC12CN(C(=O)[C@H]1CC1(C)C)C2 (some centres unmarked) [I-332],5 to 20
19,CNC(=O)[C@@H](NC(=O)[C@@H]1CN(C(=O)c2cncs2)CC12CN(CC1COC1)C2)[C@@H](C)OCC12CCC(CC1)OC2 [I-348],> 20
20,CNC(=O)[C@@H](NC(=O)[C@@H]1CN(C(=O)c2cnn(Cc3ccc(C(=O)O)cc3)c2)CC12CN(C(=O)[C@H]1CC1(C)C)C2)[C@@H](C)OCc1ccccc1 [I-476],> 20
21,CNC(=O)[C@@H](NC(=O)[C@H]1CN(C(=O)c2cnn(Cc3ccccc3)c2)CC12CN(C(=O)OC(C)(C)C)C2)[C@@H](C)OCc1ccccc1 [I-3B],> 20
22,C[C@@H](OCC1CCCCC1)[C@H](NC(=O)[C@@H]1CN(C(=O)c2cnn(Cc3ccccc3)c2)CC12CN(C(=O)[C@H]1CC1(C)C)C2)C(=O)O [I-477],> 20
23,Cc1ccc(CNC(=O)[C@@H]2CN(C(=O)c3cnn(Cc4ccncc4)c3)CC23CN(C(=O)[C@H]2CC2(C)C)C3)nn1 [I-418],> 20
24,CC(C)(O)C(NC(=O)[C@@H]1CN(C(=O)c2cncs2)CC12CN(C(=O)C(C)(C)C1CC1)C2)c1cccc(C2CCOCC2)n1 (some centres unmarked) [I-339],> 20

row,SMILES,IC50 [µM]
1,CNC(=O)[C@@H](NC(=O)C1(F)CN(C(=O)c2cnn(Cc3ccccc3)c2)CC12CN(C(=O)[C@H]1CC1(C)C)C2)[C@@H](C)OCC1CCCCC1 (some centres unmarked) [I-501],0.5 to 5
2,C[C@@H](OCC1CCOCC1)[C@H](NC(=O)[C@@H]1CN(C(=O)c2cncs2)CC12CN(C(=O)[C@H]1CC1(C)C)C2)C(=O)N1CCC(n2ccnc2)CC1 [I-440],> 20
3,C[C@@H](OCC1CCOCC1)[C@H](NC(=O)[C@@H]1CN(C(=O)c2cn[nH]c2)CC12CN(C(=O)[C@H]1CC1(C)C)C2)C(=O)N1CCC(F)(F)CC1 [I-297],> 20
4,C[C@@H](OCC1CCC(F)(F)CC1)[C@@H](COC1CCC(F)(F)CC1)NC(=O)[C@@H]1CN(C(=O)c2cncs2)CC12CN(C(=O)[C@H]1CC1(C)C)C2 [I-315],0.5 to 5
5,CNC(=O)[C@@H](NC(=O)[C@@H]1CN(C(=O)c2cncs2)CC12CN(Cc1cnco1)C2)[C@@H](C)OCC12CCC(CC1)OC2 [I-350],> 20
6,COC[C@H]1CCCN(C(=O)[C@@H](NC(=O)[C@@H]2CN(C(=O)c3cncs3)CC23CN(C(=O)C(C)(C)C2CC2)C3)[C@@H](C)OC[C@H]2CC[C@H](O)CC2)C1 [I-431],> 20
7,"C[C@@H](OCC12CCC(CC1)OC2)[C@H](NC(=O)[C@@H]1CN(C(=O)c2cncs2)CC12CN(C(=O)[C@H]1CC1(C)C)C2)C(=O)N1CCC(C(F)(F)F)CC1 [I-454, (S)—N-((2S,3R)-3-((2-oxabicyclo[2.2.2]octan-4-yl)methoxy)-1-oxo-1-(4-(trifluoromethyl)piperidin-1-yl)butan-2-yl)-2-((S)-2,2-dimethylcyclopropane-1-carbonyl)-6-(thiazole-5-carbonyl)-2,6-diazaspiro[3.4]octane-8-carboxamide]",0.5 to 5
8,C[C@@H](OCC1(C(F)(F)F)CC1)[C@H](NC(=O)[C@H]1CN(C(=O)c2cncs2)CC12CN(C(=O)[C@H]1CC1(C)C)C2)C(=O)N1CCCCC1 [I-292],> 20
9,Cc1nc(C)c(C(=O)N2C[C@@H](C(=O)N[C@H](C(=O)N3CCC4(CC3)COC4)[C@@H](C)OCC34CCC(CC3)OC4)C3(C2)CN(C(=O)[C@H]2CC2(C)C)C3)s1 [I-343],> 20
10,COC[C@H]1CCCN(C(=O)[C@@H](NC(=O)[C@@H]2CN(C(=O)c3cncs3)CC23CN(C(=O)[C@H]2CC2(C)C)C3)[C@@H](C)OC[C@H]2CC[C@@H](OC)CC2)C1 [I-408],0.5 to 5
11,CNC(=O)[C@@H](NC(=O)[C@@H]1CN(C(=O)c2cnn(Cc3ccccc3)c2)CC12CN(C(=O)[C@H]1CC1(C)C)C2)C(C)(C)OCc1ccccc1 [I-393],5 to 20
12,COC[C@H]1CCCN(C(=O)[C@@H](NC(=O)[C@@H]2CN(C(=O)c3cncs3)CC23CN(C(=O)[C@H]2CC2(C)C)C3)[C@@H](C)OC[C@H]2CC[C@H](NC(C)=O)CC2)C1 [I-434],> 20
13,C[C@@H](OCC1CC(F)(F)C1)[C@@H](CO)NC(=O)[C@@H]1CN(C(=O)c2cncs2)CC12CN(C(=O)[C@H]1CC1(C)C)C2 [I-412],> 20
14,Cc1ccc(CNC(=O)[C@@H]2CN(C(=O)c3cnn(Cc4ccncc4F)c3)CC23CN(C(=O)[C@H]2CC2(C)C)C3)nn1 [I-35],> 20
15,CNC(=O)[C@@H](NC(=O)[C@@H]1CN(C(=O)c2cncs2)CC12CN(CC1CCCO1)C2)[C@@H](C)OCC1CCCCC1 (some centres unmarked) [I-352],> 20
16,Cc1ccc(CNC(=O)[C@@H]2CN(C(=O)c3cnn(Cc4ccccn4)c3)CC23CN(C(=O)[C@H]2CC2(C)C)C3)nn1 [I-417],> 20
17,C[C@@H](OCC1(C(F)(F)F)CC1)[C@H](NC(=O)[C@H]1CN(C(=O)c2cncs2)CC12CN(C(=O)[C@H]1CC1(C)C)C2)C(=O)N1CCC(F)(F)CC1 [I-291],> 20
18,C[C@@H](OCC1CCCCC1)[C@@H](COC1CCOCC1)NC(=O)[C@@H]1CN(C(=O)c2cncs2)CC12CN(C(=O)[C@H]1CC1(C)C)C2 [I-331],≤ 0.5
19,C[C@@H](OCC12CCC(CC1)OC2)[C@H](NC(=O)[C@@H]1CN(C(=O)c2cnco2)CC12CN(C(=O)[C@H]1CC1(C)C)C2)C(C)(C)O [I-450],> 20
20,"CNC(=O)C(NC(=O)[C@@H]1CN(C(=O)c2cncs2)CC12CN(C(=O)C(C)(C)C1CC1)C2)c1cccc(C2CCCCC2)n1 (stereo partly drawn) [I-410, (8S)—N-(1-(6-cyclohexylpyridin-2-yl)-2-(methylamino)-2-oxoethyl)-2-(2-cyclopropyl-2-methylpropanoyl)-6-(thiazole-5-carbonyl)-2,6-diazaspiro[3.4]octane-8-carboxamide]",0.5 to 5
21,C[C@@H](OCC1CCCCC1)[C@H](NC(=O)C1CN(C(=O)c2cnn(Cc3ccccc3)c2)CC12CN(C(=O)[C@H]1CC1(C)C)C2)C(=O)NCCC(=O)O (some centres unmarked) [I-353],5 to 20
22,C[C@@H](OCC1CCC2(CCC2)CC1)[C@H](NC(=O)[C@@H]1CN(C(=O)c2cnn(Cc3ccccc3)c2)CC12CN(C(=O)[C@H]1CC1(C)C)C2)C(=O)N1CCC(c2cnc[nH]2)CC1 [I-444],≤ 0.5
23,C[C@@H](OCC12CCC(CC1)OC2)[C@H](NC(=O)[C@@H]1CN(C(=O)c2cncs2)CC12CN(C(=O)[C@H]1CC1(C)C)C2)C(=O)N1CCC[C@H](COC(F)F)C1 [I-461],0.5 to 5
